From US10934310B2, “Inhibitors of Bruton's tyrosine kinase and method of their use” (JANSSEN PHARMACEUTICA NV, priority 2015, dated 2021)

biological target: unphosphorylated-BTK kinase domain (UP-BTK), GST-tagged human BTK (389-659aa) (Homo sapiens (Human), UniProt Q06187); test: BTK Kinase Lanthascreen Binding Assay; conditions: Lanthascreen binding, 60 minutes incubation; pIC50 = negative log of the IC50 in molar
Protocol: BTK Kinase Lanthascreen Binding Assay:
A BTK kinase lanthascreen binding assay monitors compound binding to unphosphorylated-BTK kinase domain (UP-BTK), by competing with a fluorescent labeled tracer. […] Data were analyzed using Xlfit™ version 5.3 from ID Business Solutions (Guildford), Microsoft Excel add-in. pIC50 refers to the negative log of the IC50 in molar.

Chain of unphosphorylated-BTK kinase domain (UP-BTK), GST-tagged human BTK (389-659aa) (Q06187 389-659): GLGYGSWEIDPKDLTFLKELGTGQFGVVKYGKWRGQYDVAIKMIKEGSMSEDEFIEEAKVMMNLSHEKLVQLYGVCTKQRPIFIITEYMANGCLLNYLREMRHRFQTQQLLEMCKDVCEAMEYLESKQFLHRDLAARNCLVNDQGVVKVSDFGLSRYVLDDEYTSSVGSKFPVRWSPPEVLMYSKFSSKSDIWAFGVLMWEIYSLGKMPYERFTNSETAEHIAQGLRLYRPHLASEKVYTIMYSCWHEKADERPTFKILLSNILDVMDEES

SMILES | BTK_I_binding pIC50
C=CC(=O)N[C@H]1CCC[C@@H]1NC(=O)c1sc2nccc3c2c1NC(=O)N3c1ccc(Oc2ccccc2)cc1C [Example 458, N-((1S,2S)-2-Acrylamidocyclopentyl)-5-(2-methyl-4-phenoxyphenyl)-4-oxo-4,5-dihydro-3H-1-thia-3,5,8-triazaacenaphthylene-2-carboxamide] | 7.53
C=CC(=O)N[C@@H]1CCC[C@@H]1NC(=O)c1sc2nccc3c2c1NC(=O)N3c1ccc(Oc2ccccc2)cc1C [Example 459, N-((1S,2R)-2-Acrylamidocyclopentyl)-5-(2-methyl-4-phenoxyphenyl)-4-oxo-4,5-dihydro-3H-1-thia-3,5,8-triazaacenaphthylene-2-carboxamide] | 7.13
Cc1cc(Oc2cccc(COc3ccccc3C#N)c2)ccc1N1C(=O)Nc2c(C(=O)NC3CCCCC3)sc3nccc1c23 [Example 460, 5-(4-(3-((2-Cyanophenoxy)methyl)phenoxy)-2-methylphenyl)-N-cyclohexyl-4-oxo-4,5-dihydro-3H-1-thia-3,5,8-triazaacenaphthylene-2-carboxamide] | 6.78
Cc1cc(Oc2cccc(COc3ccccc3C#N)c2)ccc1N1C(=O)Nc2c(NC(=O)C3CC3)sc3nccc1c23 [Example 461, N-(5-(4-(3-((2-Cyanophenoxy)methyl)phenoxy)-2-methylphenyl)-4-oxo-4,5-dihydro-3H-1-thia-3,5,8-triazaacenaphthylen-2-yl)cyclopropanecarboxamide] | 6.46
Cc1cc(Oc2ccccc2)ccc1N1C(=O)Nc2c(C(=O)NC3CCCCC3)sc3nccc1c23 [Example 462, N-Cyclohexyl-5-(2-methyl-4-phenoxyphenyl)-4-oxo-4,5-dihydro-3H-1-thia-3,5,8-triazaacenaphthylene-2-carboxamide] | 6.33
O=C(NC1CCCCC1)c1sc2nccc3c2c1NC(=O)N3c1ccc(Oc2ccccc2)cc1 [Example 463, N-Cyclohexyl-4-oxo-5-(4-phenoxyphenyl)-4,5-dihydro-3H-1-thia-3,5,8-triazaacenaphthylene-2-carboxamide] | 6.22
C=CC(=O)N[C@H]1CCC[C@H]1NC(=O)c1sc2nccc3c2c1NC(=O)N3c1cnc(Oc2ncccn2)cc1C [Example 465, N-((1R,2S)-2-Acrylamidocyclopentyl)-5-(4-methyl-6-(pyrimidin-2-yloxy)pyridin-3-yl)-4-oxo-4,5-dihydro-3H-1-thia-3,5,8-triazaacenaphthylene-2-carboxamide] | 7.25
C=CC(=O)N[C@H]1CCC[C@H]1NC(=O)c1sc2nccc3c2c1NC(=O)N3c1ccc(Oc2ncccn2)nc1C [Example 468, N-((1R,2S)-2-Acrylamidocyclopentyl)-5-(2-methyl-6-(pyrimidin-2-yloxy)pyridin-3-yl)-4-oxo-4,5-dihydro-3H-1-thia-3,5,8-triazaacenaphthylene-2-carboxamide] | 6.52
C=CC(=O)N[C@H]1CCC[C@H]1NC(=O)c1sc2nccc3c2c1NC(=O)N3c1ccc(Oc2cccnn2)cn1 [Example 476, N-((1R,2S)-2-Acrylamidocyclopentyl)-4-oxo-5-(5-(pyridazin-3-yloxy)pyridin-2-yl)-4,5-dihydro-3H-1-thia-3,5,8-triazaacenaphthylene-2-carboxamide] | 6.20
C=CC(=O)N[C@H]1CCC[C@H]1NC(=O)c1sc2nccc3c2c1NC(=O)N3c1ccc(-n2ccccc2=O)nc1C [Example 477, N-((1R,2S)-2-Acrylamidocyclopentyl)-5-(6′-methyl-2-oxo-2H-[1,2′-bipyridin]-5′-yl)-4-oxo-4,5-dihydro-3H-1-thia-3,5,8-triazaacenaphthylene-2-carboxamide] | 6.85
C=CC(=O)N[C@H]1CCC[C@H]1NC(=O)c1sc2nccc3c2c1NC(=O)N3c1ccc(Oc2ccccn2)cn1 [Example 480, N-((1R,2S)-2-Acrylamidocyclopentyl)-4-oxo-5-(5-(pyridin-2-yloxy)pyridin-2-yl)-4,5-dihydro-3H-1-thia-3,5,8-triazaacenaphthylene-2-carboxamide] | 7.59
C=CC(=O)N[C@H]1CCC[C@H]1NC(=O)c1sc2nccc3c2c1NC(=O)N3c1ccc(Oc2ccc(C)nc2)cn1 [Example 481, N-((1R,2S)-2-Acrylamidocyclopentyl)-5-(5-((6-methylpyridin-3-yl)oxy)pyridin-2-yl)-4-oxo-4,5-dihydro-3H-1-thia-3,5,8-triazaacenaphthylene-2-carboxamide] | 7.33
C=CC(=O)N[C@H]1CCC[C@H]1NC(=O)c1sc2nccc3c2c1NC(=O)N3c1ccc(Oc2cncnc2)cc1C [Example 482, N-((1R,2S)-2-Acrylamidocyclopentyl)-5-(2-methyl-4-(pyrimidin-5-yloxy)phenyl)-4-oxo-4,5-dihydro-3H-1-thia-3,5,8-triazaacenaphthylene-2-carboxamide] | 7.79
C=CC(=O)N[C@H]1CCC[C@H]1NC(=O)c1sc2nccc3c2c1NC(=O)N3c1cnc(Oc2cccc(C)n2)cc1C [Example 483, N-((1R,2S)-2-Acrylamidocyclopentyl)-5-(4-methyl-6-((6-methylpyridin-2-yl)oxy)pyridin-3-yl)-4-oxo-4,5-dihydro-3H-1-thia-3,5,8-triazaacenaphthylene-2-carboxamide] | 7.49
C=CC(=O)N[C@H]1CCC[C@H]1NC(=O)c1sc2nccc3c2c1NC(=O)N3c1ccc(Oc2ncccn2)cn1 [Example 484, N-((1R,2S)-2-Acrylamidocyclopentyl)-4-oxo-5-(5-(pyrimidin-2-yloxy)pyridin-2-yl)-4,5-dihydro-3H-1-thia-3,5,8-triazaacenaphthylene-2-carboxamide] | 6.93
C=CC(=O)N[C@H]1CCC[C@H]1NC(=O)c1sc2nccc3c2c1NC(=O)N3c1ccc(Oc2cncnc2)cn1 [Example 485, N-((1R,2S)-2-Acrylamidocyclopentyl)-4-oxo-5-(5-(pyrimidin-5-yloxy)pyridin-2-yl)-4,5-dihydro-3H-1-thia-3,5,8-triazaacenaphthylene-2-carboxamide] | 6.59
C=CC(=O)N[C@H]1CCC[C@H]1NC(=O)c1sc2nccc3c2c1NC(=O)N3c1cnc(Oc2cncnc2)cc1C [Example 486, N-((1R,2S)-2-Acrylamidocyclopentyl)-5-(4-methyl-6-(pyrimidin-5-yloxy)pyridin-3-yl)-4-oxo-4,5-dihydro-3H-1-thia-3,5,8-triazaacenaphthylene-2-carboxamide] | 7.39
C=CC(=O)N[C@H]1CCC[C@H]1NC(=O)c1sc2nccc3c2c1NC(=O)N3c1cnc(Oc2ccc(C)nc2)cc1C [Example 487, N-((1R,2S)-2-Acrylamidocyclopentyl)-5-(4-methyl-6-((6-methylpyridin-3-yl)oxy)pyridin-3-yl)-4-oxo-4,5-dihydro-3H-1-thia-3,5,8-triazaacenaphthylene-2-carboxamide] | 6.87
C=CC(=O)N[C@H]1CCC[C@H]1NC(=O)c1sc2nccc3c2c1NC(=O)N3c1cnc(Oc2ccccn2)cc1C [Example 488, N-((1R,2S)-2-Acrylamidocyclopentyl)-5-(4-methyl-6-(pyridin-2-yloxy)pyridin-3-yl)-4-oxo-4,5-dihydro-3H-1-thia-3,5,8-triazaacenaphthylene-2-carboxamide] | 7.62
C=CC(=O)N[C@H]1CCC[C@H]1NC(=O)c1sc2nccc3c2c1NC(=O)N3c1cnc(Oc2cccnc2C)cc1C [Example 489, N-((1R,2S)-2-Acrylamidocyclopentyl)-5-(4-methyl-6-((2-methylpyridin-3-yl)oxy)pyridin-3-yl)-4-oxo-4,5-dihydro-3H-1-thia-3,5,8-triazaacenaphthylene-2-carboxamide] | 7.03
C=CC(=O)N[C@H]1CCC[C@H]1NC(=O)c1sc2nccc3c2c1NC(=O)N3c1cnc(Oc2cccnc2)cc1C [Example 490, N-((1R,2S)-2-Acrylamidocyclopentyl)-5-(4-methyl-6-(pyridin-3-yloxy)pyridin-3-yl)-4-oxo-4,5-dihydro-3H-1-thia-3,5,8-triazaacenaphthylene-2-carboxamide] | 7.40
C=CC(=O)N[C@H]1CCC[C@H]1NC(=O)c1sc2nccc3c2c1NC(=O)N3c1ccc(Oc2cccnc2)cn1 [Example 491, N-((1R,2S)-2-Acrylamidocyclopentyl)-4-oxo-5-(5-(pyridin-3-yloxy)pyridin-2-yl)-4,5-dihydro-3H-1-thia-3,5,8-triazaacenaphthylene-2-carboxamide] | 7.43

same assay, conditions: read-out: BTK_I_binding pIC50 (converted)

SMILES | IC50 [µM]
C=CC(=O)N[C@H]1CCCC[C@H]1NC(=O)c1sc2nccc3c2c1NC(=O)N3c1cnc(Oc2cccnn2)cc1C [Example 467, N-((1R,2S)-2-Acrylamidocyclohexyl)-5-(4-methyl-6-(pyridazin-3-yloxy)pyridin-3-yl)-4-oxo-4,5-dihydro-3H-1-thia-3,5,8-triazaacenaphthylene-2-carboxamide] | > 1
C=CC(=O)N[C@H]1CCC[C@H]1NC(=O)c1sc2nccc3c2c1NC(=O)N3c1ccc(Oc2ccccn2)nc1C [Example 478, N-((1R,2S)-2-Acrylamidocyclopentyl)-5-(2-methyl-6-(pyridin-2-yloxy)pyridin-3-yl)-4-oxo-4,5-dihydro-3H-1-thia-3,5,8-triazaacenaphthylene-2-carboxamide] | 0.0229
C=CC(=O)N[C@H]1CCC[C@H]1NC(=O)c1sc2nccc3c2c1NC(=O)N3c1ccc(Oc2cccc(C)n2)cn1 [Example 479, N-((1R,2S)-2-Acrylamidocyclopentyl)-5-(5-((6-methylpyridin-2-yl)oxy)pyridin-2-yl)-4-oxo-4,5-dihydro-3H-1-thia-3,5,8-triazaacenaphthylene-2-carboxamide] | 0.0288
